Values joined by “and” are separate entries in the source; they are usually repeats but may differ in a detail not shown here. Equal values may be shown once. Marks after values point to notes of the source that are not given here.
What was measured:
[1] = Absorption and fluorescence titration of the indicator with ZnCl2 in CH3CN; type: binding
Procedure: FIG. 3 is a graph depicting fluorescence intensity increase (F/F0 at 630 nm) of zinc(II) ion indicator (4) (3.0 μM), with increasing [ZnCl2]. The solid line is the fitting curve of F/F0 vs. [Zn^2+] based on a 1:1 binding isotherm equation. See Zhu, L.; Zhong, Z.; Anslyn, E. V. J. Am. Chem. Soc. 2005, 127, 4260-4269.
FIGS. 4A and 4B are graphs depicting (4A) Absorption spectra for the titration of zinc(II) ion indicator (4) (3.0 μM) with ZnCl2 (0-18 μM) in CH3CN, and (4B) Fluorescence spectral change of zinc(II) ion indicator (4) (3.0 μM) with different concentrations of ZnCl2 (0-18 μM) in CH3CN (λex 400 nm).
FIG. 5 is a graph depicting fluorescence spectral change of zinc(II) ion indicator (4) (2.5 μM) with different concentrations of ZnCl2 (0-16 μM) in CH3CN (λex=600 nm).
The syntheses of the separate FRET donor and acceptor systems (1-3) and indicators for zinc(II) (4, 5) are described in the examples. Absorption spectrum of zinc(II) ion indicator compound (4) in CH3CN consists of two bands over 300 nm (FIG. 4A). The band centered at 346 nm corresponds to the absorption of the bipy-containing FRET donor moiety, which we term the D band. The band centered at 600 nm corresponds to the NDI moiety which is termed the A band. Upon addition of increasing amount of ZnCl2, as a result of zinc(II) coordination at the bipy moiety, the charge-transfer D band undergoes a bathochromic shift from 346 nm to 370 nm. The A band, meanwhile, experiences a slight hypochromic shift.
The fluorescence titration profile of zinc(II) ion indicator compound (4) with ZnCl2 upon excitation at 400 nm is shown in FIG. 4B. […] This signal may have arisen from the direct excitation of the NDI component. Upon addition of increasing amount of ZnCl2 from 0-18 μM, the emission at 630 nm intensifies, and reaches saturation with 12-fold enhancement in integrated intensity (See Table 1 for spectroscopic data). […] These observations are consistent with the involvement of a zinc(II)-modulated intramolecular excitation energy transfer process. Furthermore, the differed sensitivity to excitation wavelength of zinc(II) ion indicator (4) offers an opportunity to correlate [Zn^2+] and fluorescence change ratiometrically. […]
Reagents and solvents were purchased from various commercial sources and used without further purification unless otherwise stated. […] Silica and alumina gel was flame-dried under vacuum to remove absorbed moisture before use. ^1H NMR spectra were recorded at 300 MHz on a Varian Mercury spectrometer. ^13C NMR spectra were recorded at 125 MHz, on a Bruker Avance spectrometer. […] Spectrophotometric and fluorometric titrations were conducted on a Varian Cary 100 Bio UV-Visible Spectrophotometer and a Varian Cary Eclipse Fluorescence Spectrophotometer, respectively, with a 1-cm standard quartz cell. […]

[2] = Spectroscopic data (absorption, emission, fluorescence quantum yield) in CH3CN; type: physicochemical
Procedure: Reagents and solvents were purchased from various commercial sources and used without further purification unless otherwise stated. CH3CN (OmniSolv, EMD) were directly used in titration experiments without purification. All reactions were carried out in oven- or flame-dried glassware. Analytical thin-layer chromatography (TLC) was performed using pre-coated TLC plates with silica gel 60 F254 (EMD) or with aluminum oxide 60 F254 neutral (EMD). Flash column chromatography was performed using 40-63 μm (230-400 mesh ASTM) silica gel (EMD) or alumina (80-200 mesh, pH 9-10, EMD) as the stationary phases. Silica and alumina gel was flame-dried under vacuum to remove absorbed moisture before use. ^1H NMR spectra were recorded at 300 MHz on a Varian Mercury spectrometer. ^13C NMR spectra were recorded at 125 MHz, on a Bruker Avance spectrometer. All chemical shifts were reported in δ units relative to tetramethylsilane. High resolution mass spectra were obtained at the Mass Spectrometry Laboratory at Florida State University. ESI spectra were obtained on a JEOL AccuTOF spectrometer. Spectrophotometric and fluorometric titrations were conducted on a Varian Cary 100 Bio UV-Visible Spectrophotometer and a Varian Cary Eclipse Fluorescence Spectrophotometer, respectively, with a 1-cm standard quartz cell. The fluorescence quantum yield was determined by comparison of the integrated area of corrected emission spectrum with reference of N,N′-di-n-octyl-2,6-di-n-octylamino-1,4,5,8-naphthalenetetracarboxylic acid diimide (φf=0.53 in CH2Cl2) as the reference by the literature method. See Thalacker, C.; Röger, C.; Würthner, F. J. Org.

SMILES: COCCCNc1cc2c3c(c(NCCOc4ccc(/C=C/c5ccc(-c6ccc(COCCOCCOC)cn6)nc5)cc4)cc4c3c1C(=O)N(CCCOC)C4=O)C(=O)N(CCCOC)C2=O [Compound (4)]
- enhancement in integrated intensity of emission at 630 nm at saturation ([1]; CH3CN, ZnCl2 0-18 μM, λex 400 nm): 12 fold
- D band absorption after bathochromic shift upon addition of ZnCl2 ([1]; CH3CN, increasing ZnCl2): 370 nm
- fluorescence intensity on variation of zinc(II) concentration when NDI is directly excited ([1]; CH3CN, λex 600 nm): not affected much
- Kd ([1]; indicator 3.0 μM, F/F0 at 630 nm vs [ZnCl2], fit to 1:1 binding isotherm, read-out: Dissociation constant Kd): 9.1 µM
- λabs (A band) ([2]; complexes: Zn(ClO4)2 10 equiv.): 600 nm and 600 (A) nm
- λabs (D band) ([2]; complexes: Zn(ClO4)2 10 equiv.): 346 nm and 346 (D) nm
- λem ([2]; complexes: Zn(ClO4)2 10 equiv.): 633 nm
- ∈/10^3 (A band) ([2]; complexes: Zn(ClO4)2 10 equiv.): 22 10^3 M^-1 cm^-1
- ∈/10^3 (D band) ([2]; complexes: Zn(ClO4)2 10 equiv.): 76 10^3 M^-1 cm^-1
- φf ([2]; λex = 565 nm): 0.41^c

— patent US20130071936A1, “FRET-BASED ZINC(II) ION INDICATOR” (The Florida State University Research Foundation, Inc., priority 2011, published 2013)
